In PubChem BioAssay AID194 (DTP/NCI, 2004) one finds T/C data, which are given here for 13 molecules.

Several values for one entry are separate records, joined by “and”; a condition that tells them apart may be missing. Identical values can stand only once. Inconclusive results are not listed.

For this assay, the system named is BDF1 mice, B16 melanoma s.c., survival/tumor T/C. Kind of assay: NCI In Vivo Anticancer Drug Screen. Data for tumor model B16 Melanoma (subcutaneous) in B6D2F1 (BDF1) mice. On the procedure: The antitumor activity of compounds was measured in mice bearing transplantable tumors. Survival or tumor size were measured and the results are expressed as the measurement made in the treated group (T) divided by the measurement made in the vehicle treated control group (C). The tumor model used in this assay is B16 Melanoma (subcutaneous) in B6D2F1 (BDF1) mice

For the molecule `Cc1ncc([N+](=O)[O-])n1CCO`, the T/C runs as follows: (endpoint: median survival time, dose: 37.5 mg/kg/injection, schedule: Q01DX009 (ip), vehicle: Klucel (hydroxypropylcellulose) (HPC), higher = longer survival) 100 % of control; (endpoint: median survival time, dose: 37.5 mg/kg/injection, schedule: Q04DX003 (ip), vehicle: Klucel (hydroxypropylcellulose) (HPC), higher = longer survival) 100 % of control; (endpoint: median survival time, dose: 75.0 mg/kg/injection, schedule: Q01DX009 (ip), vehicle: Klucel (hydroxypropylcellulose) (HPC), higher = longer survival) 100 % of control; (endpoint: median survival time, dose: 75.0 mg/kg/injection, schedule: Q04DX003 (ip), vehicle: Klucel (hydroxypropylcellulose) (HPC), higher = longer survival) 111 % of control; (endpoint: median survival time, dose: 150.0 mg/kg/injection, schedule: Q01DX009 (ip), vehicle: Klucel (hydroxypropylcellulose) (HPC), higher = longer survival) 108 % of control; (endpoint: median survival time, dose: 150.0 mg/kg/injection, schedule: Q04DX003 (ip), vehicle: Klucel (hydroxypropylcellulose) (HPC), higher = longer survival) 111 % of control. Also, the T/C by setting is: (endpoint: median survival time, dose: 300.0 mg/kg/injection, schedule: Q01DX009 (ip), vehicle: Klucel (hydroxypropylcellulose) (HPC), higher = longer survival) 93 % of control; (endpoint: median survival time, dose: 300.0 mg/kg/injection, schedule: Q04DX003 (ip), vehicle: Klucel (hydroxypropylcellulose) (HPC), higher = longer survival) 112 % of control; (endpoint: median survival time, dose: 600.0 mg/kg/injection, schedule: Q04DX003 (ip), vehicle: Klucel (hydroxypropylcellulose) (HPC), higher = longer survival) 121 % of control.

With `CN(N=O)C(=O)N[C@@H](C=O)[C@@H](O)[C@H](O)[C@H](O)CO`, the T/C was 113 % of control (endpoint: median survival time, dose: 20.0 mg/kg/injection, schedule: Q01DX009 (ip), vehicle: other, higher = longer survival); 123 % of control (endpoint: median survival time, dose: 40.0 mg/kg/injection, schedule: Q01DX009 (ip), vehicle: other, higher = longer survival); 106 % of control (endpoint: median survival time, dose: 80.0 mg/kg/injection, schedule: Q01DX009 (ip), vehicle: other, higher = longer survival).

Turning to `CS(C)=O`, the T/C runs as follows: (endpoint: median survival time, dose: 1.5 grams/kg/injection, schedule: Q01DX009 (ip), vehicle: saline, higher = longer survival) 105 % of control; (endpoint: median survival time, dose: 3.0 grams/kg/injection, schedule: Q01DX009 (ip), vehicle: saline, higher = longer survival) 109 % of control and 111 % of control; (endpoint: median survival time, dose: 6.0 grams/kg/injection, schedule: Q01DX009 (ip), vehicle: saline, higher = longer survival) 96 % of control and 108 % of control.

In the case of `O=NN(CCF)C(=O)NC1CCSCC1`, the T/C reads like this: (endpoint: median survival time, dose: 31.0 mg/kg/injection, schedule: Q01DX001 (ip), vehicle: saline with Tween-80, higher = longer survival) 177 % of control; (endpoint: median survival time, dose: 41.0 mg/kg/injection, schedule: Q01DX001 (ip), vehicle: saline with Tween-80, higher = longer survival) 186 % of control; (endpoint: median survival time, dose: 55.0 mg/kg/injection, schedule: Q01DX001 (ip), vehicle: saline with Tween-80, higher = longer survival) 196 % of control.

Consider `CCCCC[C@H](O)/C=C/[C@@H]1[C@@H](C/C=C\CCCC(=O)O)[C@@H](O)C[C@H]1O`, for which the T/C (endpoint: median survival time, dose: 2.5 mg/kg/injection, schedule: Q04DX002 (ip), vehicle: saline with Tween-80, higher = longer survival) was 89 % of control; the T/C (endpoint: median survival time, dose: 5.0 mg/kg/injection, schedule: Q04DX002 (ip), vehicle: saline with Tween-80, higher = longer survival) was 110 % of control; the T/C (endpoint: median survival time, dose: 10.0 mg/kg/injection, schedule: Q04DX002 (ip), vehicle: saline with Tween-80, higher = longer survival) is 106 % of control; the T/C (endpoint: median survival time, dose: 20.0 mg/kg/injection, schedule: Q04DX002 (ip), vehicle: saline with Tween-80, higher = longer survival) is 93 % of control; the T/C (endpoint: median survival time, dose: 40.0 mg/kg/injection, schedule: Q04DX002 (ip), vehicle: saline with Tween-80, higher = longer survival) was 114 % of control; the T/C (endpoint: median survival time, dose: 80.0 mg/kg/injection, schedule: Q04DX002 (ip), vehicle: saline with Tween-80, higher = longer survival) was 86 % of control. Further, the T/C (endpoint: median survival time, dose: 160.0 mg/kg/injection, schedule: Q04DX002 (ip), vehicle: saline with Tween-80, higher = longer survival) is 90 % of control.

As to `Nc1n[nH]c(N)n1`, the T/C is 93 % of control (endpoint: median survival time, dose: 100.0 mg/kg/injection, schedule: Q01DX009 (ip), vehicle: saline with Tween-80, higher = longer survival); 97 % of control (endpoint: median survival time, dose: 400.0 mg/kg/injection, schedule: Q01DX009 (ip), vehicle: saline with Tween-80, higher = longer survival); 97 % of control (endpoint: median survival time, dose: 800.0 mg/kg/injection, schedule: Q01DX009 (ip), vehicle: saline with Tween-80, higher = longer survival); 100 % of control (endpoint: median tumor weight (est.), dose: 100.0 mg/kg/injection, schedule: Q01DX009 (ip), vehicle: saline with Tween-80, higher = larger tumour); 154 % of control (endpoint: median tumor weight (est.), dose: 800.0 mg/kg/injection, schedule: Q01DX009 (ip), vehicle: saline with Tween-80, higher = larger tumour).

Consider `O=NN(CCF)C(=O)NC1CCC(=O)NC1=O` (stereo not given), for which the T/C (endpoint: median survival time, dose: 3.11 mg/kg/injection, schedule: Q01DX007 (ip), vehicle: Klucel (hydroxypropylcellulose) (HPC), higher = longer survival) was 121 % of control; the T/C (endpoint: median survival time, dose: 5.18 mg/kg/injection, schedule: Q01DX007 (ip), vehicle: Klucel (hydroxypropylcellulose) (HPC), higher = longer survival) was 124 % of control; the T/C (endpoint: median survival time, dose: 8.64 mg/kg/injection, schedule: Q01DX007 (ip), vehicle: Klucel (hydroxypropylcellulose) (HPC), higher = longer survival) was 164 % of control.

As for `Cc1c2ccncc2c(C)c2c1[nH]c1ccccc12`, the T/C is, setting by setting: (endpoint: median survival time, dose: 25.0 mg/kg/injection, schedule: Q04DX003 (ip), vehicle: Klucel (hydroxypropylcellulose) (HPC), higher = longer survival) 105 % of control; (endpoint: median survival time, dose: 50.0 mg/kg/injection, schedule: Q04DX003 (ip), vehicle: Klucel (hydroxypropylcellulose) (HPC), higher = longer survival) 98 % of control; (endpoint: median survival time, dose: 82.0 mg/kg/injection, schedule: Q04DX003 (ip), vehicle: saline with Tween-80, higher = longer survival) 122 % of control; (endpoint: median survival time, dose: 400.0 mg/kg/injection, schedule: Q01DX001 (ip), vehicle: saline with Tween-80, higher = longer survival) 112 % of control; (endpoint: median survival time, dose: 900.0 mg/kg/injection, schedule: Q01DX001 (ip), vehicle: saline with Tween-80, higher = longer survival) 114 % of control.

With `COc1cc(NS(C)(=O)=O)ccc1Nc1c2ccccc2nc2ccccc12`, the T/C is 103 % of control (endpoint: median survival time, dose: 0.5 mg/kg/injection, schedule: Q01DX009 (ip), vehicle: other, higher = longer survival); 98 % of control (endpoint: median survival time, dose: 1.0 mg/kg/injection, schedule: Q01DX009 (ip), vehicle: other, higher = longer survival); 89 % of control (endpoint: median survival time, dose: 2.0 mg/kg/injection, schedule: Q01DX009 (ip), vehicle: other, higher = longer survival); 102 % of control (endpoint: median survival time, dose: 2.0 mg/kg/injection, schedule: Q01DX009 (ip), vehicle: saline with Tween-80, higher = longer survival); 101 % of control (endpoint: median survival time, dose: 3.0 mg/kg/injection, schedule: Q01DX009 (ip), vehicle: saline with Tween-80, higher = longer survival); 98 % of control (endpoint: median survival time, dose: 4.5 mg/kg/injection, schedule: Q01DX009 (ip), vehicle: saline with Tween-80, higher = longer survival). Besides, the T/C is 89 % of control (endpoint: median survival time, dose: 9.0 mg/kg/injection, schedule: Q04DX003 (ip), vehicle: saline with Tween-80, higher = longer survival); 108 % of control (endpoint: median survival time, dose: 13.0 mg/kg/injection, schedule: Q04DX003 (ip), vehicle: saline with Tween-80, higher = longer survival); 101 % of control (endpoint: median survival time, dose: 20.0 mg/kg/injection, schedule: Q01DX001 (ip), vehicle: saline with Tween-80, higher = longer survival); 98 % of control (endpoint: median survival time, dose: 20.0 mg/kg/injection, schedule: Q04DX003 (ip), vehicle: saline with Tween-80, higher = longer survival); 107 % of control (endpoint: median survival time, dose: 30.0 mg/kg/injection, schedule: Q01DX001 (ip), vehicle: saline with Tween-80, higher = longer survival); 107 % of control (endpoint: median survival time, dose: 45.0 mg/kg/injection, schedule: Q01DX001 (ip), vehicle: saline with Tween-80, higher = longer survival).

For the molecule `COC(=O)Nc1nc2ccc(C(=O)c3cccs3)cc2[nH]1`, the T/C (endpoint: median survival time, dose: 50.0 mg/kg/injection, schedule: Q04DX002 (iv), vehicle: other, higher = longer survival) is 110 % of control; the T/C (endpoint: median survival time, dose: 50.0 mg/kg/injection, schedule: Q05DX005 (ip), vehicle: other, higher = longer survival) was 104 % of control; the T/C (endpoint: median survival time, dose: 60.0 mg/kg/injection, schedule: Q05DX005 (ip), vehicle: other, higher = longer survival) was 105 % of control; the T/C (endpoint: median survival time, dose: 70.0 mg/kg/injection, schedule: Q05DX005 (ip), vehicle: other, higher = longer survival) is 103 % of control.

For `CC1(C)OCC(CO)(Nc2nc(N3CC3)nc(N3CC3)n2)CO1`, the T/C is, setting by setting: (endpoint: median survival time, dose: 1.7 mg/kg/injection, schedule: Q01DX009 (ip), vehicle: saline, higher = longer survival) 112 % of control; (endpoint: median survival time, dose: 2.5 mg/kg/injection, schedule: Q01DX009 (ip), vehicle: saline, higher = longer survival) 104 % of control; (endpoint: median survival time, dose: 3.8 mg/kg/injection, schedule: Q01DX009 (ip), vehicle: saline, higher = longer survival) 88 % of control.

On to `COc1cccc2c1C(=O)c1c(O)c3c(c(O)c1C2=O)C[C@@](O)(C(=O)CO)C[C@@H]3OC1CC(N)C(O)C(C)O1` (stereo not given in full), for which the T/C by setting is: (endpoint: median survival time, dose: 0.12 mg/kg/injection, schedule: Q01DX009 (ip), vehicle: saline, higher = longer survival) 100 % of control and 111 % of control; (endpoint: median survival time, dose: 1.0 mg/kg/injection, schedule: Q01DX008 (ip), vehicle: saline, higher = longer survival) 100 % of control; (endpoint: median survival time, dose: 1.5 mg/kg/injection, schedule: Q01DX008 (ip), vehicle: saline, higher = longer survival) 96 % of control.

For `Nc1nncs1`, the T/C is, setting by setting: (endpoint: median survival time, dose: 59.0 mg/kg/injection, schedule: Q01DX009 (ip), vehicle: saline with Tween-80, higher = longer survival) 108 % of control; (endpoint: median survival time, dose: 1200.0 mg/kg/injection, schedule: Q04DX003 (ip), vehicle: saline with Tween-80, higher = longer survival) 121 % of control; (endpoint: median survival time, dose: 1800.0 mg/kg/injection, schedule: Q04DX003 (ip), vehicle: saline with Tween-80, higher = longer survival) 104 % of control; (endpoint: median survival time, dose: 2000.0 mg/kg/injection, schedule: Q01DX001 (ip), vehicle: saline with Tween-80, higher = longer survival) 108 % of control; (endpoint: median survival time, dose: 3000.0 mg/kg/injection, schedule: Q01DX001 (ip), vehicle: saline with Tween-80, higher = longer survival) 113 % of control.
